Laboratory results: paper PMC12064818, “A general assay platform to study protein pharmacology using ligand-dependent structural dynamics” (Nature Communications, 2025)
Several values for one entry are separate records, joined by “and”; a condition that tells them apart may be missing. Equal values may be shown once.

Biological target: FLuc-C-NLuc (firefly luciferase) (Photinus pyralis, UniProt P08659, form not given/L550V)
Experiment: SDR assay, FLuc-C-NLuc
Settings: for SDR No ATP / SDR + 10 mM ATP: 1 nM FLuc-C-NLuc, replicates; for SDR No ATP / SDR + 10 mM ATP / 1 nM FLuc-C-NLuc + 10 mM ATP, Mean / 1 nM FLuc-C-NLuc No ATP, Mean: Log [PTC124]; for SDR assay statistics Ave RLU / SDR assay statistics S:B / SDR assay statistics S:N / SDR assay statistics Z’: 32.8 µM ligand; for 1 nM FLuc-C-NLuc + 10 mM ATP, Mean / 1 nM FLuc-C-NLuc No ATP, Mean: SDR

Chain of FLuc-C-NLuc (firefly luciferase) (P08659 2-550 L550V, form open): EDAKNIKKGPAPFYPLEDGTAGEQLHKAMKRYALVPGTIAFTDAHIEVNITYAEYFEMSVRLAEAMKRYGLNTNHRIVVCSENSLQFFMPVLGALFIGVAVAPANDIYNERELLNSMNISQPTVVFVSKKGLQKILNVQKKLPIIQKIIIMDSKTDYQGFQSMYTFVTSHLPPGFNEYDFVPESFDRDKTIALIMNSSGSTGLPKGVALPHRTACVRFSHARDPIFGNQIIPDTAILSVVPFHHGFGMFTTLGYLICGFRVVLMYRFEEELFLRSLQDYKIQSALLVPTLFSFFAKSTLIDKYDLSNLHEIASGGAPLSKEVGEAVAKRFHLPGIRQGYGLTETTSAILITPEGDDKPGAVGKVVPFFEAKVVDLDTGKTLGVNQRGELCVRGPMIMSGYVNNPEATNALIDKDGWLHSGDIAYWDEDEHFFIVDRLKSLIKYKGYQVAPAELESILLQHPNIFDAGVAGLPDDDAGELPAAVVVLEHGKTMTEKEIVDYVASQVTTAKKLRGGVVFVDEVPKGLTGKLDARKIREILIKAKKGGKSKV

O=C(O)c1cccc(-c2noc(-c3ccccc3F)n2)c1 [PTC124, reference compound]
SDR No ATP (M -10.21): 6863.1 RLU and 6890.7 RLU and 6909.9 RLU and 6915.4 RLU and 6885.5 RLU and 6851.9 RLU
SDR + 10 mM ATP (M -10.69): 7243.2 RLU and 7192.1 RLU and 7498.0 RLU and 7333.4 RLU and 7436.9 RLU and 7459.7 RLU
SDR No ATP (M -10.69): 6866.7 RLU and 6851.6 RLU (2×) and 6906.1 RLU and 6919.7 RLU and 6944.4 RLU
SDR + 10 mM ATP (M -11.16): 6972.7 RLU and 6906.8 RLU (2×) and 7044.6 RLU and 7092.1 RLU and 7092.6 RLU
SDR No ATP (M -11.16): 6852.5 RLU and 6810.5 RLU and 6865.3 RLU and 6827.1 RLU and 6885.6 RLU and 6853.6 RLU
SDR + 10 mM ATP (M -11.64): 6987.2 RLU and 6840.0 RLU and 7030.1 RLU and 6788.2 RLU and 7034.1 RLU and 6802.7 RLU
SDR No ATP (M -11.64): 6913.4 RLU and 6769.3 RLU and 6893.0 RLU and 6868.3 RLU and 6877.6 RLU and 6825.9 RLU
pSDR50, FLuc-C-NLuc (1 nM) (10 μM ATP): 9.95 ± 0.05
SDR assay statistics Ave RLU (FLuc-C-NLuc (1 nM) + 10 mM ATP): 8287.4 RLU
SDR assay statistics S:B (FLuc-C-NLuc (1 nM) + 10 mM ATP): 1.2
SDR assay statistics S:N (FLuc-C-NLuc (1 nM) + 10 mM ATP): 3.4
SDR assay statistics Z’ (FLuc-C-NLuc (1 nM) + 10 mM ATP): -0.259
SDR assay statistics Ave RLU (FLuc-C-NLuc (1 nM) No ATP): 7850.3 RLU
SDR assay statistics S:B (FLuc-C-NLuc (1 nM) No ATP): 1.2
SDR assay statistics S:N (FLuc-C-NLuc (1 nM) No ATP): 2.6
SDR assay statistics Z’ (FLuc-C-NLuc (1 nM) No ATP): -0.605
1 nM FLuc-C-NLuc + 10 mM ATP, Mean (M -4.48): 7523.5 RLU
1 nM FLuc-C-NLuc No ATP, Mean (M -4.48): 7116.2 RLU
1 nM FLuc-C-NLuc + 10 mM ATP, Mean (M -4.96): 8718.4 RLU
1 nM FLuc-C-NLuc No ATP, Mean (M -4.96): 7741.8 RLU
1 nM FLuc-C-NLuc + 10 mM ATP, Mean (M -5.44): 9386.1 RLU
1 nM FLuc-C-NLuc No ATP, Mean (M -5.44): 7522.2 RLU
1 nM FLuc-C-NLuc + 10 mM ATP, Mean (M -5.91): 9658.9 RLU
1 nM FLuc-C-NLuc No ATP, Mean (M -5.91): 7037.6 RLU
1 nM FLuc-C-NLuc + 10 mM ATP, Mean (M -6.39): 9952.4 RLU
1 nM FLuc-C-NLuc No ATP, Mean (M -6.39): 6773.0 RLU
1 nM FLuc-C-NLuc + 10 mM ATP, Mean (M -6.87): 10097.2 RLU
1 nM FLuc-C-NLuc No ATP, Mean (M -6.87): 6588.7 RLU
1 nM FLuc-C-NLuc + 10 mM ATP, Mean (M -7.35): 10226.8 RLU
1 nM FLuc-C-NLuc No ATP, Mean (M -7.35): 6681.5 RLU
1 nM FLuc-C-NLuc + 10 mM ATP, Mean (M -7.82): 10303.8 RLU
1 nM FLuc-C-NLuc No ATP, Mean (M -7.82): 6587.4 RLU
1 nM FLuc-C-NLuc + 10 mM ATP, Mean (M -8.30): 10339.6 RLU
1 nM FLuc-C-NLuc No ATP, Mean (M -8.30): 6783.7 RLU
1 nM FLuc-C-NLuc + 10 mM ATP, Mean (M -8.78): 10244.6 RLU
1 nM FLuc-C-NLuc No ATP, Mean (M -8.78): 6799.2 RLU
1 nM FLuc-C-NLuc + 10 mM ATP, Mean (M -9.25): 10011.8 RLU
1 nM FLuc-C-NLuc No ATP, Mean (M -9.25): 6787.5 RLU
1 nM FLuc-C-NLuc + 10 mM ATP, Mean (M -9.73): 9047.0 RLU
1 nM FLuc-C-NLuc No ATP, Mean (M -9.73): 6823.9 RLU
1 nM FLuc-C-NLuc + 10 mM ATP, Mean (M -10.21): 8062.7 RLU
1 nM FLuc-C-NLuc No ATP, Mean (M -10.21): 6886.1 RLU
1 nM FLuc-C-NLuc + 10 mM ATP, Mean (M -10.69): 7360.6 RLU
1 nM FLuc-C-NLuc No ATP, Mean (M -10.69): 6890.0 RLU
1 nM FLuc-C-NLuc + 10 mM ATP, Mean (M -11.16): 7002.6 RLU
1 nM FLuc-C-NLuc No ATP, Mean (M -11.16): 6849.1 RLU
1 nM FLuc-C-NLuc + 10 mM ATP, Mean (M -11.64): 6913.7 RLU
1 nM FLuc-C-NLuc No ATP, Mean (M -11.64): 6857.9 RLU
